From PubChem BioAssay (NCI)
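Assay format: 96-well plates, 48-hour exposure. TGI is the concentration that stops growth completely.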

Legend:
Assay in all cases: growth of human tumour cells (NCI), 48 h
HOP-92 NSCLC = system: HOP-92 NSCLC
SR leukemia = system: SR leukemia
RPMI-8226 leukemia = system: RPMI-8226 leukemia
SK-OV-3 ovarian = system: SK-OV-3 ovarian
HL-60(TB) leukemia = system: HL-60(TB) leukemia
A498 renal = system: A498 renal
HOP-62 NSCLC = system: HOP-62 NSCLC
UACC-62 melanoma = system: UACC-62 melanoma
U251 CNS = system: U251 CNS
CAKI-1 renal = system: CAKI-1 renal
KM12 colon = system: KM12 colon
NCI-H460 lung = system: NCI-H460 lung
SNB-19 CNS = system: SNB-19 CNS
UO-31 renal = system: UO-31 renal
SN12C renal = system: SN12C renal
NCI-H226 lung = system: NCI-H226 lung
NCI-H522 lung = system: NCI-H522 lung
TK-10 renal = system: TK-10 renal
OVCAR-4 ovarian = system: OVCAR-4 ovarian
A549 NSCLC = system: A549 NSCLC
SNB-78 CNS = system: SNB-78 CNS
786-0 renal = system: 786-0 renal
RXF-631 renal = system: RXF-631 renal
HCT-116 colon = system: HCT-116 colon
SF-295 CNS = system: SF-295 CNS
M14 melanoma = system: M14 melanoma
LOX IMVI melanoma = system: LOX IMVI melanoma
K-562 leukemia = system: K-562 leukemia
OVCAR-5 ovarian = system: OVCAR-5 ovarian
HT29 colon = system: HT29 colon
OVCAR-3 ovarian = system: OVCAR-3 ovarian
HOP-18 NSCLC = system: HOP-18 NSCLC
M19-MEL melanoma = system: M19-MEL melanoma
CCRF-CEM leukemia = system: CCRF-CEM leukemia
SF-539 CNS = system: SF-539 CNS
DMS 114 small cell lung = system: DMS 114 small cell lung
SW-620 colon = system: SW-620 colon
SK-MEL-5 melanoma = system: SK-MEL-5 melanoma
OVCAR-8 ovarian = system: OVCAR-8 ovarian
SK-MEL-28 melanoma = system: SK-MEL-28 melanoma
ACHN renal = system: ACHN renal
RXF 393 renal = system: RXF 393 renal
SNB-75 CNS = system: SNB-75 CNS
SK-MEL-2 melanoma = system: SK-MEL-2 melanoma
COLO 205 colon = system: COLO 205 colon
MALME-3M melanoma = system: MALME-3M melanoma
IGROV1 ovarian = system: IGROV1 ovarian
KM20L2 colon = system: KM20L2 colon
DMS 273 small cell lung = system: DMS 273 small cell lung
SF-268 CNS = system: SF-268 CNS
HCT-15 colon = system: HCT-15 colon
DLD-1 colon = system: DLD-1 colon
UACC-257 melanoma = system: UACC-257 melanoma
XF 498 CNS = system: XF 498 CNS
LXFL 529 NSCLC = system: LXFL 529 NSCLC
EKVX NSCLC = system: EKVX NSCLC

Measured: TGI

Nc1nc(=S)c2c(ncn2CC(O)CO)[nH]1 (stereo unspecified)
> 100 µM: all assays above
